From patent US20020026053A1, “Novel 3-(substituted) -2- indolinones compounds and use thereof as inhibitors of protein kinase activity” (priority 1997, published 2002)

The molecules below were run against T1, Met receptor (EGFR/Met chimeric cells, EMR) (Homo sapiens, UniProt P08581) (assay: Met Autophosphorylation Assay). Details: protocol P.130.
T1 construct: expressed in transfected cells; the other entry of the earlier key: EGFR (P00533, Epidermal growth factor receptor)
Format: biochemical
In short: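 Transiently transfected EGFR/Met chimeric (EMR) cells were lysed in HNTG with 1 mM PMSF. Met was captured on plates coated with goat anti-rabbit IgG, then rabbit anti-Met (C-28), using 90 μg lysate/100 μl for 60 min at room temperature. Phosphotyrosine was read by ELISA.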

T1 sequence (P08581 with tags, fused parts or gaps): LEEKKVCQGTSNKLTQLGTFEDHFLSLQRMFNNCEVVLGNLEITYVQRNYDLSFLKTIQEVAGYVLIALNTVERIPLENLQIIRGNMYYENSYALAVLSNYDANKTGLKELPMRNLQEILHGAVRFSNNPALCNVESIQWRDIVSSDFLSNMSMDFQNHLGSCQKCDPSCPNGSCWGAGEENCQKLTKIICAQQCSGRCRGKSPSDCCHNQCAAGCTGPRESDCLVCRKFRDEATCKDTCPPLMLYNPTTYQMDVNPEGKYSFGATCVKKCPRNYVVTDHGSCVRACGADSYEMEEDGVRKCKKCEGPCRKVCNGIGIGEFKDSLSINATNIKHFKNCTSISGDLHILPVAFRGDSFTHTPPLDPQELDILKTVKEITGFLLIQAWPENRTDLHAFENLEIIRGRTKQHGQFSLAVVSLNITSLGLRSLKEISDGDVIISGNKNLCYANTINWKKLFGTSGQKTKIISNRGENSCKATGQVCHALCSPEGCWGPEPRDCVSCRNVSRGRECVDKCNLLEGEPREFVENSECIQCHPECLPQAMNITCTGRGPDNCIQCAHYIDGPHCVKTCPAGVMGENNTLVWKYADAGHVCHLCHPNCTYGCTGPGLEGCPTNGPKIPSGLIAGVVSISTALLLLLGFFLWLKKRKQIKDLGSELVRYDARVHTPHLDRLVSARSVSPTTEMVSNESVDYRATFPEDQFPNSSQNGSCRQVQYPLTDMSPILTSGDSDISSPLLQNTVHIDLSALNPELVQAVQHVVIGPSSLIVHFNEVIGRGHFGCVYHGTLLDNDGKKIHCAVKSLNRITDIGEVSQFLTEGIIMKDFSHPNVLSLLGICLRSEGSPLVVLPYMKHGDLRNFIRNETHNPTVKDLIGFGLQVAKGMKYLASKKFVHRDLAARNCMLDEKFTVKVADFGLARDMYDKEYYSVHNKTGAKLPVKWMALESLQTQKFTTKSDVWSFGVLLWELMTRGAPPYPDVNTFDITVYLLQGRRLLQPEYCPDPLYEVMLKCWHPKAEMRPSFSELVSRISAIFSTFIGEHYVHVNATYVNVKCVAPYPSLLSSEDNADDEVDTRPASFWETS

Structure (SMILES)	Met Kinase % Inhibition (P.130) [%]
O=C1Nc2ccc(S(=O)(=O)Nc3ccc(C(F)(F)F)cc3)cc2C1=Cc1ccc2ccccc2n1 [10740/E06]	16.6
Cn1cc(C=C2C(=O)Nc3ccc(S(=O)(=O)Nc4ccc(C(F)(F)F)cc4)cc32)c2ccccc21 [10740/E07]	19.7
O=C1Nc2ccc(S(=O)(=O)N3CCOCC3)cc2C1=Cc1cnc2ccccc2c1 [10740/F02]	59.4
CCCCOc1ccc(C=C2C(=O)Nc3ccc(S(=O)(=O)Nc4ccc(C(F)(F)F)cc4)cc32)cc1 [10740/E11]	−16.9
O=C1Nc2ccc(CCCl)cc2C1=Cc1ccnc2ccccc12 [10740/G03]	34.8
Cc1c(Br)ccc2c1C(=Cc1ccc3ccccc3n1)C(=O)N2 [10740/C06]	49.3
Cn1cc(C=C2C(=O)Nc3ccc(I)cc32)c2ccccc21 [10740/B07]	73.7
CNS(=O)(=O)c1ccc2c(c1)C(=Cc1ccsc1)C(=O)N2 [10740/D05]	39.3
Cc1c(Br)cc(Br)c2c1C(=Cc1ccc(CO)o1)C(=O)N2 [10739/H11]	75.8
COC1CCCN1C=C1C(=O)Nc2ccc(S(=O)(=O)N3CCOCC3)cc21 (stereo not shown) [10740/F04]	−5.2
O=C1Nc2ccc(I)cc2C1=Cc1ccnc2ccccc12 [10740/B03]	84.8
COC1CCCN1C=C1C(=O)Nc2c(Br)cc(Br)c(C)c21 (stereo not shown) [10740/H04]	30.9
CNS(=O)(=O)c1ccc2c(c1)C(=Cc1ccnc3ccccc13)C(=O)N2 [10740/D03]	64.4
COC1CCCN1C=C1C(=O)Nc2c(Br)cc(Br)cc21 (racemic) [10740/A04]	48.2
CCCCOc1ccc(C=C2C(=O)Nc3ccc(S(=O)(=O)NC)cc32)cc1 [10740/D11]	−9.1
O=C1Nc2ccc(CCCl)cc2C1=Cc1cc(Br)cs1 [10740/G10]	19.4
CNS(=O)(=O)c1ccc2c(c1)C(=Cc1cnc3ccccc3c1)C(=O)N2 [10740/D02]	49.9
O=C1Nc2ccc(CCCl)cc2C1=Cc1cnc2ccccc2c1 [10740/G02]	55.2
O=C1Nc2ccc(S(=O)(=O)Nc3ccc(C(F)(F)F)cc3)cc2C1=Cc1ccsc1 [10740/E05]	75.6
Cc1[nH]c2ccccc2c1C=C1C(=O)Nc2ccc(CCCl)cc21 [10740/G08]	33.4
COC1CCCN1C=C1C(=O)Nc2ccc(CCCl)cc21 (stereo not shown) [10740/G04]	9.1
O=C1Nc2c(Br)cc(Br)cc2C1=Cc1cc(Br)cs1 [10740/A10]	45.1
Cc1c(Br)cc(Br)c2c1C(=Cc1cc(Br)cs1)C(=O)N2 [10740/H10]	43.7
Cc1c(Br)cc(Br)c2c1C(=Cc1cnc3ccccc3c1)C(=O)N2 [10740/H02]	28.7
Cc1c(Br)cc(Br)c2c1C(=Cc1ccnc3ccccc13)C(=O)N2 [10740/H03]	17.5

Structure (SMILES)	Met Kinase % Inhibition (P.130) [%]
Cn1cc(C=C2C(=O)Nc3c(Br)cc(Br)cc32)c2ccccc21 [10740/A07]	54.9
COC1CCCN1C=C1C(=O)Nc2ccc(I)cc21 (racemic) [10740/B04]	76.7
O=C1Nc2ccc(I)cc2C1=Cc1cc(Br)cs1 [10740/B10]	58.0
O=C1Nc2ccc(S(=O)(=O)Nc3ccc(C(F)(F)F)cc3)cc2C1=Cc1cc(Br)cs1 [10740/E10]	61.9
O=C1Nc2ccc(I)cc2C1=Cc1ccsc1 [10740/B05]	82.3
O=C1Nc2ccc(CCCl)cc2C1=Cc1ccc2ccccc2n1 [10740/G06]	25.0
CNS(=O)(=O)c1ccc2c(c1)C(=Cc1cc(Br)cs1)C(=O)N2 [10740/D10]	16.1
Cc1c(Br)ccc2c1C(=Cc1cc(Br)cs1)C(=O)N2 [10740/C10]	−1.8
Cc1c(Br)ccc2c1C(=Cc1cn(C)c3ccccc13)C(=O)N2 [10740/C07]	44.3
CCCCOc1ccc(C=C2C(=O)Nc3ccc(S(=O)(=O)N4CCOCC4)cc32)cc1 [10740/F11]	42.9
Cc1[nH]c2ccccc2c1C=C1C(=O)Nc2c(Br)cc(Br)c(C)c21 [10740/H08]	28.1
Cn1cc(C=C2C(=O)Nc3ccc(CCCl)cc32)c2ccccc21 [10740/G07]	10.8
CCCCOc1ccc(C=C2C(=O)Nc3ccc(I)cc32)cc1 [10740/B11]	68.6
CCCCOc1ccc(C=C2C(=O)Nc3c(Br)cc(Br)cc32)cc1 [10740/A11]	30.3
Cc1c(Br)cc(Br)c2c1C(=Cc1cn(C)c3ccccc13)C(=O)N2 [10740/H07]	1.5
Cn1cc(C=C2C(=O)Nc3ccc(S(=O)(=O)N4CCOCC4)cc32)c2ccccc21 [10740/F07]	28.4
O=C1Nc2c(Br)cc(Br)cc2C1=Cc1ccnc2ccccc12 [10740/A03]	77.8
Cc1c(Br)ccc2c1C(=Cc1ccnc3ccccc13)C(=O)N2 [10740/C03]	63.6
O=C1Nc2ccc(I)cc2C1=Cc1ccc2ccccc2n1 [10740/B06]	68.9
O=C1Nc2ccc(S(=O)(=O)Nc3ccc(C(F)(F)F)cc3)cc2C1=Cc1cnc2ccccc2c1 [10740/E02]	48.2
CNS(=O)(=O)c1ccc2c(c1)C(=CN1CCCC1OC)C(=O)N2 (stereo not shown) [10740/D04]	19.4
Cc1[nH]c2ccccc2c1C=C1C(=O)Nc2c(Br)cc(Br)cc21 [10740/A08]	43.2
Cc1c(Br)cc(Br)c2c1C(=Cc1ccc3ccccc3n1)C(=O)N2 [10740/H06]	33.4
Cc1c(Br)ccc2c1C(=Cc1cnc3ccccc3c1)C(=O)N2 [10740/C02]	45.1
CNS(=O)(=O)c1ccc2c(c1)C(=Cc1ccc3ccccc3n1)C(=O)N2 [10740/D06]	41.8

Structure (SMILES)	Met Kinase % Inhibition (P.130) [%]
O=C1Nc2ccc(S(=O)(=O)N3CCOCC3)cc2C1=Cc1ccsc1 [10740/F05]	52.1
CCCCOc1ccc(C=C2C(=O)Nc3c(Br)cc(Br)c(C)c32)cc1 [10740/H11]	17.2
O=C1Nc2ccc(CCCl)cc2C1=Cc1ccsc1 [10740/G05]	30.3
O=C1Nc2c(Br)cc(Br)cc2C1=Cc1ccc2ccccc2n1 [10740/A06]	48.5
O=C1Nc2c(Br)cc(Br)cc2C1=Cc1cnc2ccccc2c1 [10740/A02]	56.3
Cc1[nH]c2ccccc2c1C=C1C(=O)Nc2ccc(I)cc21 [10740/B08]	65.0
CCCCOc1ccc(C=C2C(=O)Nc3ccc(Br)c(C)c32)cc1 [10740/C11]	−10.8
O=C1Nc2ccc(I)cc2C1=Cc1cnc2ccccc2c1 [10740/B02]	79.2
Cc1[nH]c2ccccc2c1C=C1C(=O)Nc2ccc(S(=O)(=O)N3CCOCC3)cc21 [10740/F08]	35.9
CNS(=O)(=O)c1ccc2c(c1)C(=Cc1cn(C)c3ccccc13)C(=O)N2 [10740/D07]	27.3
Cc1[nH]c2ccccc2c1C=C1C(=O)Nc2ccc(S(=O)(=O)Nc3ccc(C(F)(F)F)cc3)cc21 [10740/E08]	39.0
O=C1Nc2ccc(S(=O)(=O)N3CCOCC3)cc2C1=Cc1ccc2ccccc2n1 [10740/F06]	25.3
O=C1Nc2ccc(S(=O)(=O)N3CCOCC3)cc2C1=Cc1cc(Br)cs1 [10740/F10]	58.3
Cc1c(Br)cc(Br)c2c1C(=Cc1ccsc1)C(=O)N2 [10740/H05]	25.6
O=C1Nc2ccc(S(=O)(=O)Nc3ccc(C(F)(F)F)cc3)cc2C1=Cc1ccnc2ccccc12 [10740/E03]	66.4
O=C1Nc2c(Br)cc(Br)cc2C1=Cc1ccsc1 [10740/A05]	79.5
Cc1[nH]c2ccccc2c1C=C1C(=O)Nc2ccc(Br)c(C)c21 [10740/C08]	28.7
COC1CCCN1C=C1C(=O)Nc2ccc(Br)c(C)c21 (stereo not shown) [10740/C04]	−4.9
COC1CCCN1C=C1C(=O)Nc2ccc(S(=O)(=O)Nc3ccc(C(F)(F)F)cc3)cc21 (stereo not shown) [10740/E04]	41.8
Cc1c(Br)ccc2c1C(=Cc1ccsc1)C(=O)N2 [10740/C05]	66.1
O=C1Nc2ccc(S(=O)(=O)N3CCOCC3)cc2C1=Cc1ccnc2ccccc12 [10740/F03]	32.8
CCCCOc1ccc(C=C2C(=O)Nc3ccc(CCCl)cc32)cc1 [10740/G11]	13.3
CNS(=O)(=O)c1ccc2c(c1)C(=Cc1c(C)[nH]c3ccccc13)C(=O)N2 [10740/D08]	30.3
